Experimental data as given in US12435090B2, “Compounds, pharmaceutical compositions, and methods of preparing compounds and of their use” (Repare Therapeutics Inc., priority 2021, dated 2025).

Target: recombinant human Myt1 (Homo sapiens (Human), UniProt Q99640)
Assay: Myt1 enzymatic assay (ADP-Glo kinase assay)
Assay type: biochemical
Conditions: 18 nM enzyme, 10 uM ATP
Experimental: Detection of Myt1 kinase activity utilized a recombinant human Myt1 kinase assay measuring the hydrolysis of ATP using a commercially available ADP-Glo Assay (ADP-Glo™ Kinase Assay from Promega, 10 000 assays, #V9102). […] After this, 5 μL of compounds (diluted in reaction buffer to 0.5% DMSO) was added to the microplate and the plate was spun briefly and incubated at 22° C. for 15 minutes. Ultra-Pure Adenosine Triphosphate (ATP) solution (ADP-Glo kit from Promega) was diluted in reaction buffer and 5 μL was added to the microplate, spun down briefly and incubated for 60 minutes at 30° C. […] After the 60-minute incubation, 15 µL of ADP-Glo reagent was added and the plate was spun briefly and sealed and incubated in the dark for 40 minutes at 22° C. […] Luminescence was read using the Envision (250 ms integration). The IC50 and the % max inhibition were calculated for each inhibitor compound tested.

Sequence of recombinant human Myt1 (Q99640 whole entry): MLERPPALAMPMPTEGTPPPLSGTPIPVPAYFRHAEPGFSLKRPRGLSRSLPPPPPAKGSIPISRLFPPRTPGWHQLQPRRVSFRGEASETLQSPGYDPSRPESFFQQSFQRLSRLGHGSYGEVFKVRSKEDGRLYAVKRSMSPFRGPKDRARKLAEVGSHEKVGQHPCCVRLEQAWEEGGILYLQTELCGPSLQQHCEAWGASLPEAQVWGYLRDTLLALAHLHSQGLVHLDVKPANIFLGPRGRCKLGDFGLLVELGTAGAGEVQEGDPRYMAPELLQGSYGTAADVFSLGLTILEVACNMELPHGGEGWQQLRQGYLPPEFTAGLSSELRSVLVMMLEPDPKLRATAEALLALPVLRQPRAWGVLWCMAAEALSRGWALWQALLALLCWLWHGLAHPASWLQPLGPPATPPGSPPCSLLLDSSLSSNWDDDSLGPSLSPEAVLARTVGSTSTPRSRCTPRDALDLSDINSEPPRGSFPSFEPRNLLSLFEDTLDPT

SMILES	IC50 [µM]
Cc1ccc(O)c(C)c1-n1c(N)c(C(N)=O)c2nc(-c3nccs3)c(C)nc21 [Compound 31, 6-amino-5-(3-hydroxy-2,6-dimethyl-phenyl)-3-methyl-2-thiazol-2-yl-pyrrolo[2,3-b]pyrazine-7-carboxamide]	< 0.01
Cc1ccc(O)c(C)c1-n1c(N)c(C(N)=O)c2nc(-c3nc(C)c(C)s3)cnc21 [Compound 32]	< 0.01
Cc1ccc(O)c(C)c1-n1c(N)c(C(N)=O)c2nc(-c3ccccn3)cnc21 [Compound 34]	< 0.01
Cc1ccc(O)c(C)c1-n1c(N)c(C(N)=O)c2nc(-c3cncs3)cnc21 [Compound 37]	< 0.01
Cc1ccc(O)c(C)c1-n1c(N)c(C(N)=O)c2nc(-c3ccns3)cnc21 [Compound 41]	< 0.01
CNC(=O)C1CCN(c2cnc3c(n2)c(C(N)=O)c(N)n3-c2c(C)ccc(O)c2C)CC1 [Compound 46, 6-amino-5-(3-hydroxy-2,6-dimethyl-phenyl)-2-[4-(methylcarbamoyl)-1-piperidyl]pyrrolo[2,3-b]pyrazine-7-carboxamide]	< 0.01
Cc1ccc(O)c(C)c1-n1c(N)c(C(N)=O)c2nc(C3=CCC(C(=O)N(C)C)CC3)cnc21 (stereo not shown) [Compound 58]	< 0.01
Cc1ccc(-c2cnc3c(n2)c(C(N)=O)c(N)n3-c2c(C)ccc(O)c2C)nc1 [Compound 61]	< 0.01
Cc1ccc(O)c(C)c1-n1c(N)c(C(N)=O)c2nc(-c3ccc(F)cn3)cnc21 [Compound 64]	< 0.01
Cc1ccc(O)c(C)c1-n1c(N)c(C(N)=O)c2nc(-c3c[nH]cn3)cnc21 [Compound 65]	< 0.01
Cc1ccc(O)c(C)c1-n1c(N)c(C(N)=O)c2nc(N3CCC(C(=O)N(C)C)CC3)cnc21 [Compound 80]	< 0.01
Cc1ccc(O)c(C)c1-n1c(N)c(C(N)=O)c2nc(C3CCCCC3)cnc21 [Compound 83]	< 0.01
Cc1ccc(O)c(C)c1-n1c(N)c(C(N)=O)c2nc(N3CCCC3)cnc21 [Compound 85]	< 0.01
CC(=O)N1CCN(c2cnc3c(n2)c(C(N)=O)c(N)n3-c2c(C)ccc(O)c2C)CC1 [Compound 87]	< 0.01
CCN(CC)c1cnc2c(n1)c(C(N)=O)c(N)n2-c1c(C)ccc(O)c1C [Compound 88]	< 0.01
Cc1ccc(O)c(C)c1-n1c(N)c(C(N)=O)c2nc(C3CC3)c(C)nc21 [Compound 100]	< 0.01
Cc1ccc(O)c(Cl)c1-n1c(N)c(C(N)=O)c2nc(C3CC3)cnc21 [Compound 104]	< 0.01
Cc1ccc(O)c(C)c1-n1c(N)c(C(N)=O)c2cc(C(C)(C)O)cnc21 [Compound 131]	< 0.01
Cc1ccc(O)c(C)c1-n1c(N)c(C(N)=O)c2cc(C(C)C)cnc21 [Compound 138]	< 0.01
Cc1ccc(O)c(C)c1-n1c(N)c(C(N)=O)c2cc(Br)cnc21 [Compound 141]	< 0.01
Cc1ccc(O)c(C)c1-n1cc(C(N)=O)c2cc(C3CC3)cnc21 [Compound 143]	< 0.01

SMILES	IC50 [µM]
Cc1nc2c(C(N)=O)c(N)n(-c3c(Cl)ccc(O)c3C)c2nc1C [Compound 168]	< 0.01
Cc1ccc(O)c(C)c1-n1c(N)c(C(N)=O)c2nc(C3CCC3)cnc21 [Compound 173, 6-amino-2-cyclobutyl-5-(3-hydroxy-2,6-dimethyl-phenyl) pyrrolo[2,3-b]pyrazine-7-carboxamide]	< 0.01
Cc1ccc(O)c(C)c1-n1c(N)c(C(N)=O)c2nc(C(C)(C)F)cnc21 [Compound 178, 6-amino-2-(1-fluoro-1-methyl-ethyl)-5-(3-hydroxy-2,6-dimethyl-phenyl) pyrrolo[2,3-b]pyrazine-7-carboxamide]	< 0.01
Cc1ccc(O)c(C)c1-n1c(N)c(C(N)=O)c2cc(Br)c(C)nc21 [Compound 187]	< 0.01
Cc1ccc2c(C(N)=O)c(N)n(-c3c(C)ccc(O)c3C)c2n1 [Compound 193]	< 0.01
Cc1ccc(O)c(C)c1-n1c(N)c(C(N)=O)c2nc(C3(C(F)(F)F)CC3)cnc21 [Compound 198, 6-amino-5-(3-hydroxy-2,6-dimethyl-phenyl)-2-[1-(trifluoromethyl)cyclopropyl]pyrrolo[2,3-b]pyrazine-7-carboxamide]	< 0.01
C=C(C)c1cnc2c(n1)c(C(N)=O)c(N)n2-c1c(C)ccc(O)c1C [Compound 202]	< 0.01
C=Cc1cnc2c(n1)c(C(N)=O)c(N)n2-c1c(C)ccc(O)c1C [Compound 259]	< 0.01
Cc1ncc(O)cc1-n1c(N)c(C(N)=O)c2nc(C)c(C)nc21 [Compound 262]	3.23
Cc1ccc(O)c(Br)c1-n1c(N)c(C(N)=O)c2cc(Cl)cnc21 [Compound 289]	< 0.01
Cc1ccc(O)c(C)c1-n1c(N)c(C(N)=O)c2cc(-c3ccccn3)cnc21 [Compound 295]	< 0.01
Cc1ccc(O)c(C)c1-n1c(N)c(C(N)=O)c2cc(N3CCCC3=O)cnc21 [Compound 298]	< 0.01
Cc1ccc(O)c(C)c1-n1c(N)c(C(N)=O)c2cc(C3=CCOCC3)cnc21 [Compound 304]	< 0.01
Cc1ccc(O)c(C)c1-n1c(N)c(C(N)=O)c2cc(C#N)cnc21 [Compound 312]	< 0.01
Cc1ccc(O)c(C)c1-n1c(N)c(C(N)=O)c2c(C)c(Cl)cnc21 [Compound 313]	< 0.01
Cc1ccc(O)c(C)c1-n1c(N)c(C(N)=O)c2c(Cl)c(Cl)cnc21 [Compound 316]	< 0.01
Cc1ccc(O)c(C)c1-n1c(N)c(C(N)=O)c2cc(I)cnc21 [Compound 319]	< 0.01
Cc1ccc(O)c(C)c1-n1c(N)c(C(N)=O)c2cccnc21 [Compound 328]	< 0.01
NC(=O)c1c(N)n(-c2cccc3[nH]ncc23)c2ncc(C3CC3)nc12 [Compound 330, 6-amino-2-cyclopropyl-5-(1H-indazol-4-yl)pyrrolo[2,3-b]pyrazine-7-carboxamide]	0.106
NC(=O)c1c(N)n(-c2cccc3[nH]ncc23)c2ncc(-c3nccs3)nc12 [Compound 332]	0.142

More lines, now with the values ahead:

IC50 [µM]	SMILES
< 0.01	Cc1ccc(O)c(C)c1-n1c(N)c(C(N)=O)c2nc(-c3ccnc(C(F)(F)F)c3)cnc21 [Compound 35, 6-amino-5-(3-hydroxy-2,6-dimethyl-phenyl)-2-[2-(trifluoromethyl)-4-pyridyl]pyrrolo[2,3-b]pyrazine-7-carboxamide]
< 0.01	Cc1ccc(O)c(C)c1-n1c(N)c(C(N)=O)c2nc(-c3cnccn3)cnc21 [Compound 38]
< 0.01	Cc1c(O)ccc(Cl)c1-n1c(N)c(C(N)=O)c2nc(-c3nccs3)cnc21 [Compound 42]
< 0.01	Cc1ccc(O)c(C)c1-n1c(N)c(C(N)=O)c2nc(-c3ccncn3)cnc21 [Compound 57]
< 0.01	Cc1ccc(O)c(C)c1-n1c(N)c(C(N)=O)c2nc(-c3cn(C)cn3)cnc21 [Compound 76]
< 0.01	Cc1ccc(O)c(C)c1-n1c(N)c(C(N)=O)c2nc(N3CCCCC3)cnc21 [Compound 81]
< 0.01	Cc1ccc(O)c(C)c1-n1c(N)c(C(N)=O)c2nc(C3=CCCCC3)cnc21 [Compound 86]
< 0.01	Cc1ccc(O)c(C)c1-n1c(N)c(C(N)=O)c2nc(N3CC4CCC(C3)O4)cnc21 [Compound 92]
1.73	Cc1cnc(O)cc1-n1c(N)c(C(N)=O)c2nc(C)c(C)nc21 [Compound 169, 6-amino-5-(2-hydroxy-5-methyl-4-pyridyl)-2,3-dimethyl-pyrrolo[2,3-b]pyrazine-7-carboxamide]
< 0.01	Cc1ccc(O)c(C)c1-n1c(N)c(C(N)=O)c2nc(C(N)=O)cnc21 [Compound 220, 6-amino-5-(3-hydroxy-2,6-dimethyl-phenyl) pyrrolo[2,3-b]pyrazine-2,7-dicarboxamide]
< 0.01	Cc1ccc(O)c(C)c1-n1c(N)c(C(N)=O)c2ncc(C#CCC3CCOCC3)nc21 [Compound 222]
< 0.01	Cc1ccc(O)c(C)c1-n1c(N)c(C(N)=O)c2ncc(C#CC3(O)CCOCC3)nc21 [Compound 231]
< 0.01	Cc1ccc(O)c(C)c1-n1c(N)c(C(N)=O)c2ncc(C#CC3(O)CCC(F)(F)CC3)nc21 [Compound 242, 6-amino-3-[2-(4,4-difluoro-1-hydroxy-cyclohexyl)ethynyl]-5-(3-hydroxy-2,6-dimethyl-phenyl) pyrrolo[2,3-b]pyrazine-7-carboxamide]
< 0.01	Cc1ccc(O)c(C)c1-n1c(N)c(C(N)=O)c2nc(-c3nc4ccccc4s3)cnc21 [Compound 248]
< 0.01	Cc1ccc(O)c(C)c1-n1c(N)c(C(N)=O)c2nc(-c3ccnnc3)cnc21 [Compound 250]
1.38	NC(=O)c1c(N)n(-c2cccc3[nH]ncc23)c2nccnc12 [Compound 277, 6-amino-5-(1H-indazol-4-yl)pyrrolo[2,3-b]pyrazine-7-carboxamide]
> 5	Cc1ccc(O)c(C)c1-n1c(N)c(S(C)(=O)=O)c2nc(-c3cnccn3)cnc21 [Compound 278]
< 0.01	Cc1ccc(O)c(C)c1-n1c(N)c(C(N)=O)c2cc(-c3nccs3)cnc21 [Compound 308]
< 0.01	Cc1ccc(O)c(C)c1-n1c(N)c(C(N)=O)c2cc(S(=O)(=O)C3CC3)cnc21 [Compound 311]
< 0.01	Cc1ccc(O)c(Cl)c1-n1c(N)c(C(N)=O)c2cc(Cl)cnc21 [Compound 327]
1.32	Cc1ccc2[nH]ncc2c1-n1c(N)c(C(N)=O)c2nccnc21 [Compound 329]
1.32	CCCCc1cnc2c(n1)c(C(N)=O)c(N)n2-c1cccc2[nH]ncc12 [Compound 331]
0.052	NC(=O)c1c(N)n(-c2cccc3[nH]ncc23)c2ncc(-c3ncc(F)cc3F)nc12 [Compound 333, 6-amino-2-(3,5-difluoro-2-pyridyl)-5-(1H-indazol-4-yl)pyrrolo[2,3-b]pyrazine-7-carboxamide]
